Tested on: human myeloma cell line MM.1S
Experiment: SILAC acetylated-lysine peptide profiling, HDAC inhibitor vs DMSO (light/heavy ratio)
Assay type: cell-based
Excerpt: An embodiment of the invention comprises utilizing the SILAC method in order to quantitate changes in protein expression between two or more populations of cells. The SILAC method is a technique based on mass spectrometry that detects differences in protein abundance among samples using non-radioactive isotopic labeling. The SILAC method is known in the art, and described in detail in Ong et al., “Stable Isotope Labeling by Amino Acids in Cell Culture, SILAC, as a Simple and Accurate Approach to Expression Proteomics”, Molecular & Cellular Proteomics, vol. 1, pp. 376-386 (2002), which is incorporated herein by reference in its entirety.
Briefly, the SILAC method involves growing two populations of cells in cell culture. The first population of cells is grown in growth media containing normal amino acids (“normal media”). The second population of cells is grown in media lacking a standard essential amino acid (such as lysine), but is then supplemented with a non-radioactive, isotopically labeled form of that essential amino acid (such as lysine labeled with ^13C atoms, rather than normal ^12C atoms), which is called “heavy media”. When the two populations of cells are each growing in the medium, they incorporate the amino acids into all of their proteins. The growth of cells maintained in the heavy media is no different from that in normal media. All peptides containing the heavy amino acids are heavier than their normal counterparts. The cells from each of the two populations of cells are lysed. The lysates from each of the two cell populations are then combined. The combined cell lysates are then analyzed by mass spectrometry. Pairs of chemically identical peptides of different stable isotope composition can be differentiated in a mass spectrometer due to their difference in mass. The ratio of peak intensities in the mass spectrum for such peptide pairs reflects the abundance ratio for the two proteins.
This example describes SILAC studies that were performed to compare the effects of three different HDAC inhibitors (Compound A, Compound B, and tubastatin A) to a control on a human multiple myeloma cell line. The HDAC inhibitors were also compared amongst themselves to determine differences in their effects.
A human myeloma cell line MM.1S was grown using either ^12C (light) or ^13C (heavy) lysine containing culture medium. The “heavy” cells were treated with DMSO as the control, and the “light” cells were treated with a single HDAC inhibitor at 37° C. for 6 hours. The heavy and light cells were lysed, and the lysates were mixed in 1:1 ratio and digested with the protease trypsin. The acetylated lysine containing peptides (due to the action of the HDAC inhibitor) in the digested peptide pool were captured by a non-specific anti-acetylated lysine antibody cocktail (the antibodies identify both light and heavy acetylated peptides), and subjected to mass spectrometry analysis in order to identify thousands of individual peptides.
Thousands of peptides were identified in pairs (^12C and ^13C) due to their known mass differences. The amino acid sequence and quantitative ratio (Light/Heavy) of a given peptide in two differentially treated cell lysates were then determined and annotated with their possible protein (gene) sources.
As stated above, three HDAC inhibitors (Compound A, Compound B, and Tubastatin A) were used. Thus, the SILAC method was performed three times, with a different HDAC inhibitor compared to a control each time. Accordingly, there are three pairs of quantitative data in the table below, i.e., Compound A:DMSO, Compound B:DMSO, and Tubastatin A:DMSO. A cut-off of 1.30 fold of change (increase or decrease) was then used to determine “changed” or “+” in the table, and any peptides with a fold of change less than 1.3 fold were determined to be “unchanged” or “0” in the table. Those peptides that were not identified were marked as “NA” in the table. […]

Question: How did the “light to heavy ratio (L/H ratio) of acetylated peptide MTDK(ac)CFR (SEQ ID NO: 573)” value (Mitochondrial import inner membrane translocase subunit Tim13 [45], gene TIMM13, inhibitor:DMSO) turn out when O=C(CCCCCCNC(=O)c1cnc(N(c2ccccc2)c2ccccc2)nc1)NO [Compound A, 2-(diphenylamino)-N-(7-(hydroxyamino)-7-oxoheptyl)pyrimidine-5-carboxamide] was run?
Answer: 0.42 log 2

Question: And the “light to heavy ratio (L/H ratio), log 2 scale, acetylated peptide YVK(ac)ALFR (SEQ ID NO: 771)” value (Mitochondrial import receptor subunit TOM70 [188], gene TOMM70A, drug:DMSO)?
Answer: 0.99

Question: What about the “light to heavy ratio (L/H ratio) of acetylated peptide (ac)AEPVSPLK(ac)HFVLAK (SEQ ID NO: 508)” value (Mitochondrial transmembrane GTPase FZO-2 [37], gene MFN1, inhibitor:DMSO) of the same compound?
Answer: −0.63 log 2

Question: And the “light to heavy ratio (L/H ratio) of acetylated peptide LSLLSK(ac)FR (SEQ ID NO: 564)” value (Mitochondrial trifunctional protein beta subunit (Fragment) [100], gene HADHB, inhibitor:DMSO)?
Answer: 0.41 log 2

Question: What about the “light to heavy ratio (L/H ratio) of acetylated peptide EIFQNEK(ac)R (SEQ ID NO: 288)” value (NAD(P) transhydrogenase mitochondrial [70], NNT, drug:DMSO) of the same compound?
Answer: 0.64 log 2

Question: And the “light to heavy ratio (L/H ratio) of acetylated peptide AISPDK(ac)DNFYFDVK (SEQ ID NO: 284)” value (NAD(P) transhydrogenase mitochondrial [403], NNT, drug:DMSO)?
Answer: 0.61 log 2

Question: What about the “L/H ratio of acetylated peptide” value (NK(ac)WFFQK (SEQ ID NO: 498), 60S ribosomal protein L27 [128], RPL27) of the same compound?
Answer: −0.86 log 2

Question: What about the “L/H ratio of acetylated peptide” value (NK(ac)YGDAFIR (SEQ ID NO: 496), U6 snRNA-associated Sm-like protein LSm6 [59], LSM6) of the same compound?
Answer: −0.93 log 2

Question: What about the “L/H ratio of acetylated peptide ADKDYHFK(ac)[…] (SEQ ID NO: 61)” value (NPM1 [32], log 2 scale, drug vs DMSO) of the same compound?
Answer: 0.00

Question: And the “L/H ratio of acetylated peptide FINYVK(ac)NCFR (SEQ ID NO: 62)” value (NPM1 [244], log 2 scale, drug vs DMSO)?
Answer: 0.00

Question: And the “L/H ratio of acetylated peptide GVTQFGNK(ac)[…] (SEQ ID NO: 18)” value (NUDT21 [23], log 2 scale, drug vs DMSO)?
Answer: 1.00

Question: What about the “light to heavy ratio (L/H ratio) of acetylated peptide FCLSK(ac)PGVYK (SEQ ID NO: 345)” value (Nodal modulator 1 [630], NOMO3, NOMO1, drug:DMSO) of the same compound?
Answer: 0.00 log 2

Question: What about the “light to heavy ratio (L/H ratio) of acetylated peptide […](ac)R (SEQ ID NO: 532)” value (Nucleosome assembly protein 1-like 1 [116], gene NAP1L1, inhibitor:DMSO) of the same compound?
Answer: −0.41 log 2

Question: And the “L/H ratio of acetylated peptide SGVGNVFIK(ac)NLDK (SEQ ID NO: 63)” value (PABPC4 [104], log 2 scale, drug vs DMSO)?
Answer: 0.00

Question: What about the “L/H ratio of acetylated peptide […](ac)IFR (SEQ ID NO: 66)” value (PDIA3 [104], log 2 scale, drug vs DMSO) of the same compound?
Answer: 0.00

Question: What about the “L/H ratio of acetylated peptide PSHLTNK(ac)FEDK (SEQ ID NO: 65)” value (PDIA3 [214], log 2 scale, drug vs DMSO) of the same compound?
Answer: 0.00

Question: What about the “L/H ratio of acetylated peptide GEK(ac)FVMQEEFSR (SEQ ID NO: 64)” value (PDIA3 [335], log 2 scale, drug vs DMSO) of the same compound?
Answer: 0.00

Question: What about the “L/H ratio of acetylated peptide SLLGK(ac)DVLFLK (SEQ ID NO: 67)” value (PGK1 [91], log 2 scale, drug vs DMSO) of the same compound?
Answer: 0.00

Question: What about the “light to heavy ratio (L/H ratio) of acetylated peptide, log 2 scale” value (PLISVYSEK(ac)GESSGK (SEQ ID NO: 247), 60S ribosomal protein L4 [14], RPL4) of the same compound?
Answer: −0.54

Question: What about the “L/H ratio of acetylated peptide SIYGEK(ac)FEDENFILK (SEQ ID NO: 68)” value (PPIA [82], log 2 scale, drug vs DMSO) of the same compound?
Answer: 0.00

Question: What about the “L/H ratio of acetylated peptide VIFGLFGK(ac)TVPK (SEQ ID NO: 70)” value (PPIB [67], log 2 scale, drug vs DMSO) of the same compound?
Answer: 0.00

Question: What about the “L/H ratio of acetylated peptide TVPK(ac)[…] (SEQ ID NO: 69)” value (PPIB [71], log 2 scale, drug vs DMSO) of the same compound?
Answer: 0.00

Question: And the “L/H ratio of acetylated peptide VIK(ac)[…] (SEQ ID NO: 71)” value (PPIB [98], log 2 scale, drug vs DMSO)?
Answer: 0.00

Question: And the “L/H ratio of acetylated peptide IYGFYDECK(ac)R (SEQ ID NO: 72)” value (PPP1CC [141], log 2 scale, drug vs DMSO)?
Answer: 0.00

Question: What about the “light to heavy ratio (L/H ratio) of acetylated peptide TAWLDGK(ac)HVVFGK (SEQ ID NO: 592)” value (Peptidyl-prolyl cis-trans isomerase B [165], gene PPIB, inhibitor:DMSO) of the same compound?
Answer: 0.44 log 2

Question: What about the “light to heavy ratio (L/H ratio) of acetylated peptide FPDENFK(ac)LK (SEQ ID NO: 347)” value (Peptidyl-prolyl cis-trans isomerase C [123], PPIC, drug:DMSO) of the same compound?
Answer: 0.00 log 2

Question: And the “light to heavy ratio (L/H ratio) of acetylated peptide HVVFGK(ac)VK (SEQ ID NO: 576)” value (Peptidylprolyl isomerase A (Cyclophilin A) (PPIA) pseudogene [141], gene PPIAP26, inhibitor:DMSO)?
Answer: 0.42 log 2

Question: And the “light to heavy ratio (L/H ratio) of acetylated peptide LAK(ac)YFFNK (SEQ ID NO: 604)” value (Periodic tryptophan protein 2 homolog [279], gene PWP2, inhibitor:DMSO)?
Answer: 0.46 log 2

Question: What about the “light to heavy ratio (L/H ratio) of acetylated peptide AAWEHMK(ac)K (SEQ ID NO: 551)” value (Peroxisomal multifunctional enzyme type 2 [139], gene HSD17B4, inhibitor:DMSO) of the same compound?
Answer: 0.39 log 2

Question: And the “light to heavy ratio (L/H ratio) of acetylated peptide FAK(ac)[…] (SEQ ID NO: 557)” value (Peroxisomal multifunctional enzyme type 2 [565], gene HSD17B4, inhibitor:DMSO)?
Answer: 0.40 log 2

Question: What about the “light to heavy ratio (L/H ratio) of acetylated peptide […](ac)EALKK (SEQ ID NO: 619)” value (Poly [ADP-ribose] polymerase 1 [192], gene PARP1, inhibitor:DMSO) of the same compound?
Answer: 0.48 log 2

Question: What about the “light to heavy ratio (L/H ratio) of acetylated peptide […](ac)DELKK (SEQ ID NO: 346)” value (Poly [ADP-ribose] polymerase 1 [249], PARP1, drug:DMSO) of the same compound?
Answer: 0.00 log 2

Question: What about the “light to heavy ratio (L/H ratio) of acetylated peptide […](ac)NVLK (SEQ ID NO: 527)” value (Pre-mRNA-processing-splicing factor 8 [2108], gene PRPF8, inhibitor:DMSO) of the same compound?
Answer: −0.44 log 2

Question: What about the “light to heavy ratio (L/H ratio) of acetylated peptide ALK(ac)YLVMDEADR (SEQ ID NO: 513)” value (Probable ATP-dependent RNA helicase DDX47 [169], gene DDX47, inhibitor:DMSO) of the same compound?
Answer: −0.58 log 2

Question: What about the “light to heavy ratio (L/H ratio) of acetylated peptide (ac)AAK(ac)VFESIGK (SEQ ID NO: 277)” value (Prohibitin [4], PHB, drug:DMSO) of the same compound?
Answer: 0.54 log 2

Source: patent US20140357512A1, “HISTONE DEACETYLASE (HDAC) BIOMARKERS IN MULTIPLE MYELOMA” (priority 2013, published 2014)
